Data published in paper PMC9000575, “Solution Equilibrium Studies on Salicylidene Aminoguanidine Schiff Base Metal Complexes: Impact of the Hybridization with L-Proline on Stability, Redox Activity and Cytotoxicity” (Molecules, 2022).
≈ marks a conversion by molar mass, not a printed value.

Columns and labels:
[1] = stability constants of Fe(II) complexes by pH-potentiometry; format: physicochemical; details: 30% (v/v) DMSO/H2O; for logβ [Fe(II)LH−1] / logβ [Fe(II)LH−2]− / logβ [Fe(II)L]+: 25 °C, I = 0.10 M (KCl), anaerobic; for pFe(II) (−log[Fe(II)]): calculated at pH 7.4, cFe = 1 μM, cligand = 10 μM
Experimental: Complexation with Fe(II) was studied under strictly anaerobic conditions. […] Aside from the better solubility of the Pro-SISC-Me complexes, the two ligands behaved similarly and the difference between their Fe(II)-binding efficacy was minor.
(§1) The pH-potentiometric measurements for the determination of the proton dissociation constants of the ligands and the overall stability constants of the metal complexes were carried out at 25.0 ± 0.1 °C in water or in 30% (v/v) DMSO/H2O as solvent and at an ionic strength of 0.10 M (KCl). The titrations were performed with carbonate-free KOH solution of known concentration (0.10 M). The concentrations of the base and the HCl were determined by pH-potentiometric titrations. An Orion 710A pH-meter equipped with a Metrohm combined electrode (type 6.0234.100), and a Metrohm 665 Dosimat burette were used for the titrations. […] The average water ionization constant pKw was 13.76 ± 0.05 (water) or 14.52 ± 0.05 (30% (v/v) DMSO/H2O). The pH-potentiometric titrations were performed in the pH range 2.0–12.5. The initial volume of the samples was 10.0 mL. The ligand concentration was 2 mM and metal ion-to-ligand ratios of 1:1–1:3 were used. The accepted fitting of the titration curves was always less than 0.01 mL. Argon was always passed over the solutions during the titrations. The exact concentration of the ligand stock solutions together with the proton dissociation constants were determined by pH-potentiometric titrations with the use of the computer program HYPERQUAD [44]. It was also utilized to establish the stoichiometry of the complexes and to calculate the stability constants (β(MpLqHr)). β(MpLqHr) is defined for the general equilibrium pM + qL + rH ⇋ MpLqHr as β(MpLqHr) = [MpLqHr]/[M]^p[L]^q[H]^r, where M denotes the metal ion and L the completely deprotonated ligand. In all calculations exclusively, titration data were used from experiments in which no precipitate was visible in the reaction mixture.

[2] = thermodynamic solubility at pH 7.4; format: physicochemical; details: 10 mM HEPES buffer, aqueous buffer, thermodynamic from solid, pH 7.4, T = 25 °C, read-out: thermodynamic solubility at pH 7.4 (S7.4)
[3] = stability constants of Fe(III) complexes by pH-potentiometry; format: physicochemical; details: 30% (v/v) DMSO/H2O; for pFe(III)* (−logΣ[Fe(III)i(OH)j]): calculated at pH 7.4, cFe = 1 μM, cligand = 10 μM
Experimental: as §1

[4] = n-octanol/water distribution coefficient, shake-flask; format: physicochemical; details: n-octanol/buffered aqueous solution, pH 7.4; n-octanol/H2O, pH 7.40, 25 °C, 0.10 M KCl; read-out: logD7.4
Experimental: Distribution coefficients (D7.4) values were determined by the traditional shake-flask method in n-octanol/buffered aqueous solution at pH 7.40 (20 mM HEPES, 0.10 M KCl) at 25.0 ± 0.2 °C as described previously.

[5] = test system: MRC-5 human embryonal lung fibroblast cells; assay: MTT cytotoxicity test; format: cell-based; details: Homo sapiens, MRC5, MRC-5, 72 h
Experimental: (§2) All cell culture reagents were obtained from Sigma-Aldrich and plastic ware from Sarstedt (Nümbrecht, Germany). Human colon Colo-205 (chemo-sensitive) and Colo-320 (doxorubicin-resistant) adenocarcinoma and MRC-5 human embryonal lung fibroblast cell lines were purchased from LGC Promochem, Teddington, UK. The colon adenocarcinoma cells were cultured in Roswell Park Memorial Institute (RPMI) 1640 medium supplemented with 10% heat-inactivated fetal bovine serum, 2 mM L-glutamine, 1 mM sodium pyruvate and 100 mM HEPES. The MRC-5 cell line was cultured in Eagle’s Minimal Essential Medium (EMEM, Sigma-Aldrich, St. Louis, MO, USA) supplemented with a non-essential amino acid (NEAA) mixture (Sigma-Aldrich, St. Louis, MO, USA) a selection of vitamins, 10% heat-inactivated foetal bovine serum (FBS), 2 mM L-glutamine (Sigma-Aldrich, St. Louis, MO, USA), 1 mM Na-pyruvate (Sigma-Aldrich, St. Louis, MO, USA), nystatin (Sigma-Aldrich, St. Louis, MO, USA) and a penicillin-streptomycin mixture (Sigma-Aldrich, St. Louis, MO, USA) in concentrations of 100 U/L and 10 mg/L, respectively. The cells were incubated at 37 °C, in a 5% CO2, 95% air atmosphere. All cell lines were detached with Trypsin-Versene® (EDTA) solution for 5 min at 37 °C.
(§3) The tested compounds were dissolved in 90% (v/v) DMSO/H2O using 8 mM concentration, […] in the final samples the DMSO content was always lower than 1%. Then stock solutions were diluted in complete culture medium, and two-fold serial dilutions of compounds were prepared in 100 μL of the medium, horizontally. The semi-adherent colon adenocarcinoma cells were treated with Trypsin-Versene (EDTA) solution. They were adjusted to a density of 1 × 10^4 cells in 100 μL of RPMI 1640 or EMEM medium and were added to each well, with the exception of the medium control wells. The final volume of the wells containing compounds and cells was 200 μL. The plates containing Colo-205, Colo-320 or MRC-5 cells were incubated at 37 °C for 72 h; at the end of the incubation period, 20 μL of MTT solution (from a stock solution of 5 mg/mL) were added to each well. After incubation at 37 °C for 4 h, 100 μL of SDS solution (10% in 0.01 M HCI) were added to each well, and the plates were further incubated at 37 °C overnight. Cell growth was determined by measuring the optical density (OD) at 540/630 nm with a Multiskan EX plate reader (Thermo Labsystems, Cheshire, WA, USA). Inhibition of the cell growth (expressed as IC50: inhibitory concentration that reduces by 50% the growth of the cells exposed to the tested compounds) was determined from the sigmoid curve where 100 − ((ODsample − ODmedium control)/(ODcell control − ODmedium control)) × 100 values were plotted against the logarithm of compound concentrations. Curves were fitted by GraphPad Prism software (2021, Graphpad Software, San Diego, CA, USA) using the sigmoidal dose–response model (comparing variable and fixed slopes). The IC50 values were obtained from at least three independent experiments.

[6] = test system: Colo-205 human colon adenocarcinoma cells; assay: MTT cytotoxicity test; format: cell-based; details: Homo sapiens, Colo-205, 72 h
Experimental: as §2, §3

[7] = test system: Colo-320 (doxorubicin-resistant) human colon adenocarcinoma cells; assay: MTT cytotoxicity test; format: cell-based; details: Homo sapiens, Colo-320, 72 h
Experimental: as §2, §3

[8] = proton dissociation constants by pH-potentiometry; format: physicochemical; details: for pK1 (H3L2+) / pK2 (H2L+) / pK3 (HL): Pro-SISC-Me; for pK1 (H3L2+) / pK2 (H2L+) / pK3 (HL) / pK1 (H2L+) / pK2 (HL): pH-pot.; for fraction present as H2L+ at pH 7.4 / fraction present as HL at pH 7.4: based on the pKa values; for fraction present as HL at pH 7.4: HL neutral (zwitter ionic for Pro-SISC-Me); for pK1 (H2L+) / pK2 (HL): SISC
Experimental: as §1

| SMILES | logβ [Fe(II)LH−1] [1] | logβ [Fe(II)LH−2]− [1] | logβ [Fe(II)L]+ [1] | pFe(II) (−log[Fe(II)]) [1] | solubility thermodynamic [2] | logβ [Fe(III)L2]+ ([3]; 25 °C, I = 0.10 M (KCl)) | logβ [Fe(III)L]2+ ([3]; 25 °C, I = 0.10 M (KCl)) | pFe(III)* (−logΣ[Fe(III)i(OH)j]) [3] | logD [4] | IC50 [5] | IC50 [6] | IC50 [7] | fraction present as H2L+ at pH 7.4 [8] | fraction present as HL at pH 7.4 [8] | also measured |
| --- | --- | --- | --- | --- | --- | --- | --- | --- | --- | --- | --- | --- | --- | --- | --- |
| Cc1cc(C=NNC(=N)N)c(O)c(CN2CCCC2C(=O)O)c1 (stereo not shown) [Pro-SISC-Me] | −1.08 ± 0.05 | <−11 | 6.83 ± 0.04 | 6.1 | ~10 mM (≈ 3190 µg/mL) | 27.63 ± 0.05 | 15.25 ± 0.04 | 10.0 | -0.88 ± 0.05 | > 80 µM | > 80 µM | > 80 µM | 33% | 67% | logβ [Fe(III)L2H−1] ([3]; 25 °C, I = 0.10 M (KCl)): 18.40 ± 0.07; logβ [Fe(III)L2H−2]− ([3]; 25 °C, I = 0.10 M (KCl)): 8.64 ± 0.08; pK1 (H3L2+) ([8]; 30% DMSO/H2O): 1.80 ± 0.08; pK2 (H2L+) ([8]; 30% DMSO/H2O): 7.08 ± 0.02; pK3 (HL) ([8]; 30% DMSO/H2O): 9.91 ± 0.02; pK1 (H3L2+) ([8]; H2O, 25 °C, I = 0.10 M (KCl)): 2.52 ± 0.08; pK2 (H2L+) ([8]; H2O, 25 °C, I = 0.10 M (KCl)): 7.25 ± 0.06; pK3 (HL) ([8]; H2O, 25 °C, I = 0.10 M (KCl)): 9.61 ± 0.05 |
| N=C(N)NN=Cc1ccccc1O [SISC, 2-(2-hydroxybenzylidene)hydrazinecarboximidamide] | −0.73 ± 0.07 | −8.94 ± 0.08 | 7.20 ± 0.06 | 6.0 | ~2 mM (≈ 356 µg/mL) | 27.46 ± 0.05 | 14.96 ± 0.05 | 7.9 | 0.83 | > 80 µM | > 80 µM | > 80 µM | 64% | 36% | pK1 (H2L+) ([8]; 30% DMSO/H2O): 7.62 ± 0.03; pK2 (HL) ([8]; 30% DMSO/H2O): 10.63 ± 0.02; pK1 (H2L+) ([8]; H2O, 25 °C, I = 0.10 M (KCl)): 7.64 ± 0.09; pK2 (HL) ([8]; H2O, 25 °C, I = 0.10 M (KCl)): 9.96 ± 0.09 |
